Measured values: US6461997B1, “Triazole sulfones having herbicidal activity” (Monsanto Technology LLC, priority 1999, dated 2002)

Assays:
SETVI (green foxtail) = test: Pre-emergence herbicidal activity, cool season; type: in vivo, Setaria viridis; settings: GR80 = lowest tested rate (300, 100, 30, 10 g/ha) with 80% or greater inhibition; approx. 14 days after treating; 18/13° C.
How it was run: (§1)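 GR80 values derive from percent inhibition relative to untreated plants, read roughly 14 days after sowing and pre-emergence soil-surface treatment (compound in 50:50 acetone/water; rates typically 10, 30, 100, 300 g/ha). Warm-season weeds grew at 30/21° C day/night, cool-season ones at 18/13° C; an asterisk marks activity without reaching 80% at the highest rate.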

POLCO (wild buckwheat) = test: Pre-emergence herbicidal activity, cool season; type: in vivo, Polygonum convolvulus; settings: lowest tested rate with 80% or greater inhibition; rates 300, 100, 30, 10 g/ha; about 14 days
How it was run: (§2)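 Activity is expressed as the rate giving 80% inhibition, with 300, 100, 30 and 10 g/ha typically tested. An asterisk marks activity short of 80% at the top rate. Warm-season grasses were held at 30/21 °C; cool-season blackgrass and wild buckwheat at 18/13 °C; scoring at about 14 days.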

SINAR (wild mustard) = test: Pre-emergence herbicidal activity, cool season; type: in vivo, Sinapis arvensis; settings: lowest tested rate with 80% or greater inhibition; rates 300, 100, 30, 10 g/ha; about 14 days
How it was run: as §1

SETFA (giant foxtail) = test: Pre-emergence herbicidal activity, warm season; type: in vivo, Setaria faberi; settings: GR80 = lowest tested rate (300, 100, 30, 10 g/ha) with 80% or greater inhibition; approx. 14 days after treating; 30/21° C.
How it was run: as §1

[1] = system: VERPE (creeping speedwell); test: Pre-emergence herbicidal activity, cool season; type: in vivo, Veronica persicaria; settings: lowest tested rate with 80% or greater inhibition; rates 300, 100, 30, 10 g/ha; about 14 days
How it was run: as §1

[2] = system: LAMPU (purple deadnettle); test: Pre-emergence herbicidal activity, cool season; type: in vivo, Lamium purpureum; settings: lowest tested rate with 80% or greater inhibition; rates 300, 100, 30, 10 g/ha; about 14 days
How it was run: as §1

STEME (common chickweed) = test: Pre-emergence herbicidal activity, cool season; type: in vivo, Stellaria media; settings: lowest tested rate with 80% or greater inhibition; rates 300, 100, 30, 10 g/ha; about 14 days
How it was run: as §1

[3] = system: AGSST (creeping bentgrass); test: Pre-emergence herbicidal activity, cool season; type: in vivo, Agrostis stolonifera; settings: GR80 = lowest tested rate (300, 100, 30, 10 g/ha) with 80% or greater inhibition; approx. 14 days after treating; 18/13° C.
How it was run: as §1

[4] = system: SORHA (johnsongrass (seedling)); test: Pre-emergence herbicidal activity, warm season; type: in vivo, Sorghum halepense; settings: GR80 = lowest tested rate (300, 100, 30, 10 g/ha) with 80% or greater inhibition; approx. 14 days after treating; 30/21° C.
How it was run: as §1

[5] = system: PANMI (wild proso millet); test: Pre-emergence herbicidal activity, warm season; type: in vivo, Panicum miliaceum; settings: GR80 = lowest tested rate (300, 100, 30, 10 g/ha) with 80% or greater inhibition; approx. 14 days after treating; 30/21° C.
How it was run: as §2

[6] = system: GALAP (catchweed bedstraw); test: Pre-emergence herbicidal activity, cool season; type: in vivo, Galium aparine; settings: lowest tested rate with 80% or greater inhibition; rates 300, 100, 30, 10 g/ha; about 14 days
How it was run: as §1

SASKR (russian thistle) = test: Pre-emergence herbicidal activity, cool season; type: in vivo, Salsola kali; settings: lowest tested rate with 80% or greater inhibition; rates 300, 100, 30, 10 g/ha; about 14 days
How it was run: as §1

PANDI (fall panicum) = test: Pre-emergence herbicidal activity, warm season; type: in vivo, Panicum dichotomiflorum; settings: GR80 = lowest tested rate (300, 100, 30, 10 g/ha) with 80% or greater inhibition; approx. 14 days after treating; 30/21° C.
Description: (§3) Tables 5 to 8 summarize results of tests conducted as described below to determine the pre-emergence herbicidal activity, in the form of a GR80 value, of illustrative compounds of this invention. […] Compounds of the invention were typically applied at rates of 300, 100, 30, and 10 g/ha. Where herbicidal activity was evident but 80% inhibition was not achieved at the highest rate tested, an asterisk (*) is shown in the following tables.
(§4) The pre-emergence tests were conducted by the following procedure. Topsoil was sieved to pass through a 1.27 cm screen. Fertilizer was added to the topsoil and the mixture was then sterilized by heating. The topsoil mixture was placed in a pot and compacted to a depth of 1.0 to 1.25 cm from the top of the pot. Seeds of each of several monocotyledonous and dicotyledonous annual plant species were placed on top of the soil. Additional soil was subsequently placed over the seeds to level-fill the pot. A known amount of each test compound dissolved or suspended in an appropriate organic solvent was diluted with a 50:50 mix of acetone and water and applied to the surface of the soil. After treatment the plants were placed in a greenhouse where they received 0.64 cm of overhead irrigation. All subsequent watering consisted of a light overhead mist and/or subirrigation as needed for germination and growth. Tables 5 and 6 below relate to warm season plant species which were placed after pre-emergence treatment in a greenhouse with a 30/21° C. day/night temperature regime. Tables 7 and 8 below relates to cool season plant species placed after pre-emergence treatment in a greenhouse or growth chamber with an 18/13° C. day/night temperature regime.
(§5) Approximately 14 days after planting and treating, the plants were observed and herbicidal efficacy recorded as percent inhibition by comparison with untreated plants.
(§6) The plant species usually regarded as weeds which were utilized in the tests are identified in the tables below according to the following legend, in which “d” indicates a dicotyledonous species and “m” a monocotyledonous species. All monocotyledonous species included in the tests herein are grasses.

BROTE (downy brome) = test: Pre-emergence herbicidal activity, cool season; type: in vivo, Bromus tectorum; settings: GR80 = lowest tested rate (300, 100, 30, 10 g/ha) with 80% or greater inhibition; approx. 14 days after treating; 18/13° C.
Description: as §3, §4, §5, §6

LOLMG (annual ryegrass) = test: Pre-emergence herbicidal activity, cool season; type: in vivo, Lolium multiflorum; settings: GR80 = lowest tested rate (300, 100, 30, 10 g/ha) with 80% or greater inhibition; approx. 14 days after treating; 18/13° C.
Description: as §3, §4, §5, §6

ABUTH (velvetleaf) = test: Pre-emergence herbicidal activity, warm season; type: in vivo, Abutilon theophrasti; settings: GR80 = lowest tested rate (300, 100, 30, 10 g/ha) with 80% or greater inhibition; approx. 14 days after treating; 30/21° C.
Description: as §3, §4, §5, §6

SORVU (shattercane) = test: Pre-emergence herbicidal activity, warm season; type: in vivo, Sorghum vulgare; settings: GR80 = lowest tested rate (300, 100, 30, 10 g/ha) with 80% or greater inhibition; approx. 14 days after treating; 30/21° C.
Description: as §3, §4, §5, §6

ALOMY (blackgrass) = test: Pre-emergence herbicidal activity, cool season; type: in vivo, Alopecurus myosuroides; settings: GR80 = lowest tested rate (300, 100, 30, 10 g/ha) with 80% or greater inhibition; approx. 14 days after treating; 18/13° C.
How it was run: as §2

[7] = system: BRAPP (broadleaf signalgrass); test: Pre-emergence herbicidal activity, warm season; type: in vivo, Brachiaria platyphylla; settings: GR80 = lowest tested rate (300, 100, 30, 10 g/ha) with 80% or greater inhibition; approx. 14 days after treating; 30/21° C.
How it was run: as §1

POROL (common purslane) = test: Pre-emergence herbicidal activity, warm season; type: in vivo, Portulaca oleracea; settings: GR80 = lowest tested rate (300, 100, 30, 10 g/ha) with 80% or greater inhibition; approx. 14 days after treating; 30/21° C.
How it was run: as §1

ECHCG (barnyardgrass) = test: Pre-emergence herbicidal activity, warm season; type: in vivo, Echinochloa crus-galli; settings: GR80 = lowest tested rate (300, 100, 30, 10 g/ha) with 80% or greater inhibition; approx. 14 days after treating; 30/21° C.
How it was run: as §1

[8] = system: CHEAL (common lambsquarters); test: Pre-emergence herbicidal activity, warm season; type: in vivo, Chenopodium album; settings: GR80 = lowest tested rate (300, 100, 30, 10 g/ha) with 80% or greater inhibition; approx. 14 days after treating; 30/21° C.
How it was run: as §1

DIGSA (large crabgrass) = test: Pre-emergence herbicidal activity, warm season; type: in vivo, Digitaria sanguinalis; settings: GR80 = lowest tested rate (300, 100, 30, 10 g/ha) with 80% or greater inhibition; approx. 14 days after treating; 30/21° C.
How it was run: as §2

SMILES	Pre-emergence activity (GR80) SETVI (SETVI (green foxtail))	Pre-emergence activity GR80, POLCO (POLCO (wild buckwheat))	Pre-emergence activity GR80, SINAR (SINAR (wild mustard))	Pre-emergence activity (GR80) SETFA (SETFA (giant foxtail))	Pre-emergence activity GR80, VERPE [1]	Pre-emergence activity GR80, LAMPU [2]	Pre-emergence activity GR80, STEME (STEME (common chickweed))	Pre-emergence activity (GR80) AGSST [3]	Pre-emergence activity (GR80) SORHA [4]	Pre-emergence activity (GR80) PANMI [5]	Pre-emergence activity GR80, GALAP [6]	Pre-emergence activity GR80, SASKR (SASKR (russian thistle))	Pre-emergence activity (GR80) BROTE (BROTE (downy brome))	Pre-emergence activity (GR80) LOLMG (LOLMG (annual ryegrass))	Pre-emergence activity (GR80) SORVU (SORVU (shattercane))	also measured
CCN(CC)C(=S)n1cnc(S(=O)(=O)C(F)(F)Br)n1 [Example 46]	300 g/ha	300 g/ha	[empty]	300 g/ha	100 g/ha	100 g/ha	300 g/ha	300 g/ha	300 g/ha	300 g/ha	300 g/ha	300 g/ha				Pre-emergence activity (GR80) PANDI (PANDI (fall panicum)): 300 g/ha
CON(C)C(=O)n1cnc(S(=O)(=O)C(F)(F)C(F)(F)Br)n1 [Example 81]		[empty]	30 g/ha		100 g/ha	100 g/ha	30 g/ha	100 g/ha			[empty]	100 g/ha	30 g/ha			
CN(C(=O)n1cnc(S(=O)(=O)C(F)(F)Cl)n1)C1CCCCC1 [Example 91]	300 g/ha	100 g/ha	10 g/ha		10 g/ha	30 g/ha	30 g/ha	100 g/ha		100 g/ha	100 g/ha	30 g/ha	300 g/ha	300 g/ha	300 g/ha	Pre-emergence activity (GR80) ABUTH (ABUTH (velvetleaf)): 300 g/ha; Pre-emergence activity (GR80) ALOMY (ALOMY (blackgrass)): 300 g/ha
CCCN(CC)C(=O)n1cnc(S(=O)(=O)C(F)(F)C(F)(F)Br)n1 [Example 75]	30 g/ha	[empty]	30 g/ha	300 g/ha	10 g/ha	30 g/ha	30 g/ha	30 g/ha	300 g/ha	100 g/ha	300 g/ha	10 g/ha	300 g/ha	300 g/ha	300 g/ha	Pre-emergence activity (GR80) BRAPP [7]: 300 g/ha; Pre-emergence activity (GR80) POROL (POROL (common purslane)): 300 g/ha; Pre-emergence activity (GR80) ECHCG (ECHCG (barnyardgrass)): 100 g/ha; Pre-emergence activity (GR80) CHEAL [8]: 300 g/ha; Pre-emergence activity (GR80) DIGSA (DIGSA (large crabgrass)): 300 g/ha
